From the NIST ThermoML archive (doi:10.1016/j.fluid.2014.09.014)

Test: refractive index (other wavelength) (dimensionless); xn = mol fraction of the nth substance listed
Settings: 101 kPa, Liquid, Standard Abbe refractometry

CC(C)OC(C)C [diisopropyl ether] + CC(C)O
refractive index
Settings	Wavelength=404.7 nm	Wavelength=435.8 nm	Wavelength=486.1 nm	Wavelength=546.1 nm	Wavelength=587.6 nm	Wavelength=589.3 nm	Wavelength=632.8 nm	Wavelength=644 nm	Wavelength=706.5 nm
308.15 K, x1 = 0.0277	1.38135	1.37835	1.37495	1.37214	1.37065	1.37059	1.36929	1.36899	1.36755
308.15 K, x1 = 0.0507	1.3813	1.3783	1.37488	1.37207	1.37059	1.37053	1.36924	1.36894	1.36748
308.15 K, x1 = 0.051	1.38124	1.37824	1.37483	1.37202	1.37053	1.37047	1.36917	1.36887	1.36742
308.15 K, x1 = 0.0717	1.38092	1.37792	1.37451	1.3717	1.37072	1.37014	1.36886	1.36856	1.36711
308.15 K, x1 = 0.1528	1.38023	1.37724	1.37384	1.371	1.36953	1.36947	1.3682	1.3679	1.36646
308.15 K, x1 = 0.1553	1.38023	1.37724	1.37384	1.371	1.36953	1.36947	1.3682	1.3679	1.36646
308.15 K, x1 = 0.1938	1.37994	1.37695	1.37356	1.37072	1.36925	1.36919	1.36792	1.36761	1.36617
308.15 K, x1 = 0.2029	1.3793	1.37665	1.37311	1.37028	1.3688	1.36875	1.36748	1.36718	1.36573
308.15 K, x1 = 0.245	1.37901	1.37603	1.37266	1.36984	1.36837	1.36832	1.36706	1.36676	1.36532
308.15 K, x1 = 0.297	1.37832	1.37533	1.37193	1.36911	1.36764	1.36759	1.36631	1.36601	1.36457
308.15 K, x1 = 0.2973	1.37852	1.37554	1.37215	1.36932	1.36785	1.3678	1.36653	1.36623	1.3648
308.15 K, x1 = 0.3068	1.37823	1.37525	1.3718	1.36857	1.36754	1.36751	1.36624	1.36594	1.36451
308.15 K, x1 = 0.398	1.37692	1.37394	1.37056	1.36775	1.36628	1.36623	1.36496	1.36466	1.36323
308.15 K, x1 = 0.4609	1.37625	1.37325	1.36987	1.36707	1.3656	1.36554	1.36427	1.36397	1.36254
308.15 K, x1 = 0.5434	1.37535	1.37238	1.36896	1.3662	1.36473	1.36467	1.36338	1.36309	1.36168
308.15 K, x1 = 0.6032	1.37466	1.3717	1.3683	1.3655	1.36404	1.36398	1.36271	1.36241	1.361
308.15 K, x1 = 0.6371	1.37427	1.37131	1.36792	1.36515	1.36369	1.36363	1.36235	1.36205	1.36064
308.15 K, x1 = 0.701	1.37352	1.37059	1.36722	1.36441	1.36297	1.36292	1.36166	1.36135	1.35993
308.15 K, x1 = 0.754	1.37312	1.37017	1.36681	1.36401	1.36256	1.36251	1.36125	1.36096	1.35954
308.15 K, x1 = 0.791	1.37271	1.36974	1.36638	1.36358	1.36215	1.36209	1.36085	1.36054	1.35911
308.15 K, x1 = 0.8296	1.37234	1.36938	1.36604	1.36323	1.36178	1.36173	1.36048	1.36018	1.35877
308.15 K, x1 = 0.8864	1.37212	1.36915	1.3658	1.363	1.36156	1.36151	1.36026	1.35996	1.35855
308.15 K, x1 = 0.8903	1.37167	1.36871	1.36535	1.36256	1.36111	1.36106	1.35981	1.35952	1.3581
308.15 K, x1 = 0.9113	1.37142	1.36847	1.36511	1.36232	1.36088	1.36082	1.35957	1.35928	1.35786
308.15 K, x1 = 0.9547	1.37095	1.36796	1.36465	1.36187	1.36041	1.36036	1.3591	1.3588	1.35741
308.15 K, x1 = 0.973	1.37062	1.36766	1.36431	1.36152	1.36008	1.36002	1.35877	1.35847	1.35707
308.15 K, x1 = 0.9771	1.37048	1.36752	1.36417	1.36139	1.35994	1.35989	1.35864	1.35835	1.35694
308.15 K, x1 = 1	1.37035	1.36739	1.36407	1.36127	1.35975	1.35983	1.35853	1.35823	1.35683
313.15 K, x1 = 0.0277	1.37904	1.37606	1.37269	1.36987	1.3684	–	–	–	–
313.15 K, x1 = 0.0507	1.37898	1.376	1.37262	1.3698	1.36833	–	–	–	–
313.15 K, x1 = 0.051	1.37891	1.37594	1.37256	1.36974	1.36828	–	–	–	–
313.15 K, x1 = 0.0717	1.37855	1.37558	1.37221	1.36939	1.36792	–	–	–	–
313.15 K, x1 = 0.1528	1.37787	1.3749	1.3715	1.36872	1.36724	–	–	–	–
313.15 K, x1 = 0.1553	1.37787	1.3749	1.3715	1.36872	1.36724	–	–	–	–
313.15 K, x1 = 0.1938	1.37761	1.37465	1.37126	1.36846	1.36699	–	–	–	–
313.15 K, x1 = 0.2029	1.37706	1.37411	1.37068	1.36791	1.36645	–	–	–	–
313.15 K, x1 = 0.245	1.37653	1.37358	1.37022	1.36743	1.36596	–	–	–	–
313.15 K, x1 = 0.297	1.37571	1.37276	1.36938	1.36658	1.36512	–	–	–	–
313.15 K, x1 = 0.2973	1.37596	1.37298	1.36959	1.36682	1.36535	–	–	–	–
313.15 K, x1 = 0.3068	1.37567	1.37271	1.36934	1.36655	1.36509	–	–	–	–
313.15 K, x1 = 0.398	1.37428	1.37134	1.36798	1.3652	1.36376	–	–	–	–
313.15 K, x1 = 0.4609	1.37355	1.3706	1.36724	1.36445	1.36302	–	–	–	–
313.15 K, x1 = 0.5434	1.37263	1.36967	1.36633	1.36354	–	–	–	–	–
313.15 K, x1 = 0.6032	1.37187	1.36891	1.36561	1.36281	–	–	–	–	–
313.15 K, x1 = 0.6371	1.37152	1.36856	1.36522	1.36243	–	–	–	–	–
313.15 K, x1 = 0.701	1.37074	1.36779	1.36447	1.36168	–	–	–	–	–
313.15 K, x1 = 0.754	1.3703	1.36737	1.36403	1.36126	–	–	–	–	–
313.15 K, x1 = 0.791	1.36988	1.36694	1.36363	1.36084	–	–	–	–	–
313.15 K, x1 = 0.8296	1.36948	1.36655	1.36322	1.36045	–	–	–	–	–
313.15 K, x1 = 0.8864	1.36937	1.36643	1.36308	1.36035	–	–	–	–	–
313.15 K, x1 = 0.8903	1.3688	1.36585	1.36252	1.35976	–	–	–	–	–
313.15 K, x1 = 0.9113	1.36853	1.3656	1.36228	1.35952	–	–	–	–	–
313.15 K, x1 = 0.9547	1.36805	1.36513	1.3618	1.35904	–	–	–	–	–
313.15 K, x1 = 0.973	1.36771	1.36481	1.36145	1.35868	–	–	–	–	–
313.15 K, x1 = 0.9771	1.36756	1.36465	1.36134	1.35856	–	–	–	–	–
313.15 K, x1 = 1	1.3674	1.36447	1.36119	1.35842	–	–	–	–	–
